Laboratory results reported in patent US20240368159A1, “HPK1 DEGRADERS, COMPOSITIONS COMPRISING THE HPK1 DEGRADER, AND METHODS OF USING THE SAME” (BIOFRONT LTD, priority 2021, published 2024).

Legend:
HPK1 protein [1] = biological target: T1, HPK1 protein (Homo sapiens, UniProt Q92918); assay: HPK1 enzyme inhibition assay (ADP-Glo); format: biochemical; details: MBP substrate, ATP, ADP-Glo readout
T1 construct: purchased Signal Chem M23-11G-10
T1 sequence (Q92918 1-346 limits assumed): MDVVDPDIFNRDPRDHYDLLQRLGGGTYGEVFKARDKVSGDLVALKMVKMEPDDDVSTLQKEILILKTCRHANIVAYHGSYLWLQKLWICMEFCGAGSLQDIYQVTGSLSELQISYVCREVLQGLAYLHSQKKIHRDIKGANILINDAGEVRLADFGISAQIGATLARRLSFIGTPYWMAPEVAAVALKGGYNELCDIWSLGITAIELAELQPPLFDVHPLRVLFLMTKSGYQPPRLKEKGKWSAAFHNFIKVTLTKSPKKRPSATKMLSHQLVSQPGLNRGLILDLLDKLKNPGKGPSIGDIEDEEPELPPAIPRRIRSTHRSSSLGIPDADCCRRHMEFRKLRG
Procedure, shortened: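 Recombinant human HPK1 preincubated with compound 60 min at 25 °C, then reaction with MBP (0.2 ug/ul, 2× stock) and ATP (20 μM, 2× stock) 60 min at 25 °C. ADP formed detected by ADP-Glo after ATP depletion and conversion to ATP; IC50 calculated from signal.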

HPK1 p-SLP-76 = HPK1 p-SLP-76 inhibition assay in human PBMC (HTRF); format: cell-based; details: 6 h compound, anti-CD3 stimulation 20 min
Procedure, shortened: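 Human PBMC starved overnight in 0.5% FBS, treated with compound 6 h at 37° C, then stimulated with anti-CD3 (10 ug/mL final) for 20 min. Lysates analysed for phospho-SLP76 by HTRF after overnight detection-antibody incubation at 25° C.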

HPK1 protein [2] = biological target: T2, HPK1 protein (Mus musculus, UniProt P70218); assay: HPK1 protein degradation in mouse pan T cell (western blot); format: cell-based; details: 18 h incubation
T2 construct: the CD3+ T cell population was isolated from spleenocytes of mice; endogenous in cells; host or cells: primary mouse splenic CD3+ (pan) T cells
T2 sequence (P70218 1-827): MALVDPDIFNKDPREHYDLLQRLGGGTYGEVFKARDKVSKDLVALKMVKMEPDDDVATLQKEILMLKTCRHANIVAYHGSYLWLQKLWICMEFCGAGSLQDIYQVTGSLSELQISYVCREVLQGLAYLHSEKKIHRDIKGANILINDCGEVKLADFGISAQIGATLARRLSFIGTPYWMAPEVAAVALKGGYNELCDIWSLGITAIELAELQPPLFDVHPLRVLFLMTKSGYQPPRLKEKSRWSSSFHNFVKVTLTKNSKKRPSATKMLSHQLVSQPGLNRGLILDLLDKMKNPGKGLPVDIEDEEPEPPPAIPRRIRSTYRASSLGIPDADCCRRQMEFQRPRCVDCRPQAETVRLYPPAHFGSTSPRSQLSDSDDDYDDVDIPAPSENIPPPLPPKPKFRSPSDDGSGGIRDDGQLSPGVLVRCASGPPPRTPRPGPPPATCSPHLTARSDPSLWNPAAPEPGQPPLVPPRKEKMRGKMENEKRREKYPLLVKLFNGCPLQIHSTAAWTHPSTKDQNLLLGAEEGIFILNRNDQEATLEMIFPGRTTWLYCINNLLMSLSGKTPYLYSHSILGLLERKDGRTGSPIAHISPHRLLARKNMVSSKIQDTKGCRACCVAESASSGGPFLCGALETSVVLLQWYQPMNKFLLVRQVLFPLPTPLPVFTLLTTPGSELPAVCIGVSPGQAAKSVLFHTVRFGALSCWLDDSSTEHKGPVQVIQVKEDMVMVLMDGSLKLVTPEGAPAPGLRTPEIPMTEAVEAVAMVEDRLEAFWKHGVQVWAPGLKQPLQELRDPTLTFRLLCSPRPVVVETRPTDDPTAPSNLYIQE
Method: (§1) HPK1 protein degradation in mouse pan T cell: the CD3+ T cell population was isolated from spleenocytes of mice by using Pan T cell isolation kit from Miltenyi Biotec (130-095-130) following manufacture's instruction. The isolated T cells were then incubated with a variety of concentrations of compound. After incubation for 18 h, the cells were collected and lysed. The protein concentration was determined by BCA protein assay kit from Thermo (23227). The HPK1 protein level was determined by western blots, using anti-human HPK1 polyclonal antibody from CST (4472). Proteins were loaded into each well of the pre-casting gels and subjected to electrophoretic separation by SDS-PAGE. The protein resolved by SDS-PAGE were transferred to PVDF, blocked by 5% skim milk and probed with anti-human HPK1 antibody or β-actin antibody from CST (3700S), using following standard western blotting procedure.

HPK1 protein [3] = biological target: T3, HPK1 protein (Homo sapiens, UniProt Q92918); assay: HPK1 protein degradation in human PBMC (western blot); format: cell-based; details: 18 h incubation
T3 construct: Frozen human PBMC were purchased from Shanghai OribioTech; host or cells: human PBMC
Method: as §1, with “human PBMC: Frozen human PBMC were purchased” for “mouse pan T cell: the CD3+ T cell population was isolated”, “Shanghai OribioTech and recovered with culture medium (RMPI1640) prior to use.” for “spleenocytes of mice by using Pan T cell isolation kit from Miltenyi Biotec (130-095-130) following manufacture's instruction.”, “The” for “The isolated T”, “(4472S).” for “(4472).”, “milk,” for “milk”, “using” for “using following”
T3 sequence (Q92918 whole entry): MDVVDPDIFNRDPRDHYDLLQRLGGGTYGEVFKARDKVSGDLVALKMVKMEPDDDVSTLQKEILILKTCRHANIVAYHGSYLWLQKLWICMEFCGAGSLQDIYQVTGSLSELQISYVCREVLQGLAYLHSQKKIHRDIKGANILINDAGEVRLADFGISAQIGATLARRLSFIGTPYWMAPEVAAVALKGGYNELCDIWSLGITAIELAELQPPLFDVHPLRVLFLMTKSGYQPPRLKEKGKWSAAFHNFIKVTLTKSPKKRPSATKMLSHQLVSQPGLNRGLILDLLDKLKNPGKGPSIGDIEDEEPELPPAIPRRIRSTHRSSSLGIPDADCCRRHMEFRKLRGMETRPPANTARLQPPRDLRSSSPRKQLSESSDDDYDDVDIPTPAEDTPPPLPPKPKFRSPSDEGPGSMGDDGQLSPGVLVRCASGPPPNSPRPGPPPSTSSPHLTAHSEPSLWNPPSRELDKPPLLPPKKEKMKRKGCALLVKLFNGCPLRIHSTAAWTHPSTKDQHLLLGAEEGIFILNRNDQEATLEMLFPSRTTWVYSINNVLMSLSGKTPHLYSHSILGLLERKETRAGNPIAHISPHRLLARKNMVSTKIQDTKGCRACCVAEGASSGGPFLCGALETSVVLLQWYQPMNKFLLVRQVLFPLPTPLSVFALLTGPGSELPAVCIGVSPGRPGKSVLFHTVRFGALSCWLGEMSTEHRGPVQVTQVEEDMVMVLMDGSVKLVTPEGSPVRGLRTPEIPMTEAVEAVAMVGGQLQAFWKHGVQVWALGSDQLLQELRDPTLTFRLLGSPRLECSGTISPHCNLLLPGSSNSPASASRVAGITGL

Row | IC50 (HPK1 protein [1]) | IC50 (HPK1 p-SLP-76) | Dmax (HPK1 protein [2]) | Dmax (HPK1 protein [3]) | SMILES
1 | 10 to 100 nM | 300 to 3000 nM |  | 80% | CCc1c[nH]c2ncc(-c3cccc(N4CCN(CCN5CCN(c6ccc7c(c6)C(=O)N(C6CCC(=O)NC6=O)C7=O)CC5)CC4=O)c3)c(Cl)c12 (centres unmarked) [Example 28, 5-(4-(2-(4-(3-(4-chloro-3-ethyl-1H-pyrrolo[2,3-b]pyridin-5-yl)phenyl)-3-oxopiperazin-1-yl)ethyl)piperazin-1-yl)-2-(2,6-dioxopiperidin-3-yl)isoindoline-1,3-dione]
2 | 10 to 100 nM | ≤ 300 nM | 90% | 99% | CCc1c[nH]c2ncc(-c3cccc(N4CCN(S(=O)(=O)CCCN5CCN(c6ccc7c(c6)C(=O)N(C6CCC(=O)NC6=O)C7=O)CC5)CC4=O)c3)c(Cl)c12 (centres unmarked) [Example 99, 5-(4-(3-((4-(3-(4-chloro-3-ethyl-1H-pyrrolo[2,3-b]pyridin-5-yl)phenyl)-3-oxopiperazin-1-yl)sulfonyl)propyl)piperazin-1-yl)-2-(2,6-dioxopiperidin-3-yl)isoindoline-1,3-dione]
3 | 10 to 100 nM |  | 90% | 78% | CCc1c[nH]c2ncc(-c3cccc(N4CCN(C(=O)CCOC5CCN(c6ccc7c(c6)C(=O)N(C6CCC(=O)NC6=O)C7=O)CC5)CC4=O)c3)c(Cl)c12 (centres unmarked) [Example 32]
4 | 10 to 100 nM |  | 90% | 78% | O=C1CCC(N2C(=O)c3cc(F)c(N4CCC(CCN5CCN(c6cccc(-c7cnc8[nH]cc(C9CC9)c8c7Cl)c6)C(=O)C5)CC4)cc3C2=O)C(=O)N1 (centres unmarked) [Example 45]
5 | ≤ 10 nM | 300 to 3000 nM |  | 74% | O=C1CCN(c2cccc3cc(N4CCN(CCCN5CCN(c6cccc(-c7cnc8[nH]cc(C9CC9)c8c7Cl)n6)C(=O)C5)CC4)ccc23)C(=O)N1 [Example 69, 1-(6-(4-(3-(4-(6-(4-chloro-3-cyclopropyl-1H-pyrrolo[2,3-b]pyridin-5-yl)pyridin-2-yl)-3-oxopiperazin-1-yl)propyl)piperazin-1-yl)naphthalen-1-yl)dihydropyrimidine-2,4 (1H,3H)-dione]
6 | 10 to 100 nM |  | 95% | 88% | O=C1CCC(N2C(=O)c3cc(F)c(N4CCC(OCCCN5CCN(c6cccc(-c7cnc8[nH]cc(C9CC9)c8c7Cl)c6)C(=O)C5)CC4)cc3C2=O)C(=O)N1 (centres unmarked) [Example 40, 5-(4-(3-(4-(3-(4-chloro-3-cyclopropyl-1H-pyrrolo[2,3-b]pyridin-5-yl)phenyl)-3-oxopiperazin-1-yl)propoxy)piperidin-1-yl)-2-(2,6-dioxopiperidin-3-yl)-6-fluoroisoindoline-1,3-dione]
7 | 100 to 1000 nM |  | 95% | 55% | O=C1CCC(N2C(=O)c3cc(F)c(N4CCC(CCN5CCN(c6cccc(-c7cnc8[nH]cc(CC(F)F)c8c7Cl)c6)C(=O)C5)CC4)cc3C2=O)C(=O)N1 (centres unmarked) [Example 55]
8 | ≤ 10 nM |  | 91% | 86% | CCc1c[nH]c2ncc(-c3cccc(N4CCN(CCCN5CC=C(c6ccc7c(N8CCC(=O)NC8=O)nn(C)c7c6)CC5)CC4=O)c3)c(Cl)c12 [Example 74, 1-(6-(1-(3-(4-(3-(4-chloro-3-ethyl-1H-pyrrolo[2,3-b]pyridin-5-yl)phenyl)-3-oxopiperazin-1-yl)propyl)-1,2,3,6-tetrahydropyridin-4-yl)-1-methyl-1H-indazol-3-yl)dihydropyrimidine-2,4 (1H,3H)-dione]
9 | 10 to 100 nM |  | 95% | 57% | CC(OC1CCN(c2cc3c(cc2F)C(=O)N(C2CCC(=O)NC2=O)C3=O)CC1)C(=O)N1CCN(c2cccc(-c3cnc4[nH]cc(C5CC5)c4c3Cl)c2)C(=O)C1 (centres unmarked) [Example 48]
10 | 10 to 100 nM |  | 90% | 93% | CCc1c[nH]c2ncc(-c3cccc(N4CCN(S(=O)(=O)CCN5CCN(c6ccc7c(c6)C(=O)N(C6CCC(=O)NC6=O)C7=O)CC5)CC4=O)c3)c(Cl)c12 (centres unmarked) [Example 100]
11 | 10 to 100 nM | 300 to 3000 nM |  | 30% | O=C1CCN(c2cccc3cc(N4CCC(OCCN5CCN(c6cccc(-c7cnc8[nH]cc(C9CC9)c8c7Cl)n6)C(=O)C5)CC4)ccc23)C(=O)N1 [Example 72]
12 | 10 to 100 nM |  | 95% | 86% | O=C1CCC(N2C(=O)c3cc(F)c(N4CCN(CCCN5CCN(c6cccc(-c7cnc8[nH]cc(C9CC9)c8c7Cl)n6)C(=O)C5)CC4)cc3C2=O)C(=O)N1 (centres unmarked) [Example 53, 5-(4-(3-(4-(6-(4-chloro-3-cyclopropyl-1H-pyrrolo[2,3-b]pyridin-5-yl)pyridin-2-yl)-3-oxopiperazin-1-yl)propyl)piperazin-1-yl)-2-(2,6-dioxopiperidin-3-yl)-6-fluoroisoindoline-1,3-dione]
13 | 100 to 1000 nM |  | 80% | 85% | O=C1CCC(N2C(=O)c3cc(F)c(N4CCC(OCCCN5CCN(c6cccc(-c7cnc8[nH]cc(CC(F)F)c8c7Cl)c6)C(=O)C5)CC4)cc3C2=O)C(=O)N1 (centres unmarked) [Example 39, 5-(4-(3-(4-(3-(4-chloro-3-(2,2-difluoroethyl)-1H-pyrrolo[2,3-b]pyridin-5-yl)phenyl)-3-oxopiperazin-1-yl)propoxy)piperidin-1-yl)-2-(2,6-dioxopiperidin-3-yl)-6-fluoroisoindoline-1,3-dione]
14 | 10 to 100 nM |  | 95% | 98% | O=C1CCC(N2C(=O)c3ccc(N4CCC(OCC(=O)N5CCN(c6cccc(-c7cnc8[nH]cc(C9CC9)c8c7Cl)c6)C(=O)C5)CC4)cc3C2=O)C(=O)N1 (centres unmarked) [Example 31]

Row | SMILES | IC50 (HPK1 protein [1]) | IC50 (HPK1 p-SLP-76) | Dmax (HPK1 protein [2]) | Dmax (HPK1 protein [3])
15 | O=C1CCC(N2Cc3cc(C4CCN(CCCN5CCN(c6cccc(-c7cnc8[nH]cc(C9CC9)c8c7Cl)c6)C(=O)C5)CC4)ccc3C2=O)C(=O)N1 (centres unmarked) [Example 54, 3-(5-(1-(3-(4-(3-(4-chloro-3-cyclopropyl-1H-pyrrolo[2,3-b]pyridin-5-yl)phenyl)-3-oxopiperazin-1-yl)propyl)piperidin-4-yl)-1-oxoisoindolin-2-yl)piperidine-2,6-dione] | ≤ 10 nM | ≤ 300 nM | 95% | 83%
16 | CCc1c[nH]c2ncc(-c3cccc(N4CCN(CCC(=O)N5CCN(c6cc7c(cc6F)C(=O)N(C6CCC(=O)NC6=O)C7=O)CC5)CC4=O)c3)c(Cl)c12 (centres unmarked) [Example 30, 5-(4-(3-(4-(3-(4-chloro-3-ethyl-1H-pyrrolo[2,3-b]pyridin-5-yl)phenyl)-3-oxopiperazin-1-yl)propanoyl)piperazin-1-yl)-2-(2,6-dioxopiperidin-3-yl)-6-fluoroisoindoline-1,3-dione] | 10 to 100 nM |  | 80% | 61%
